Experimental data: PMC10278977, “Caenorhabditis elegans NMAD-1 functions as a demethylase for actin” (Journal of Molecular Cell Biology, 2023)

Experiments:
[1] = biological target: T1, NMAD-1_32–291 (NMAD-1 truncation Δ1–31) (Caenorhabditis elegans, UniProt Q8MNT9); assay: binding affinity measurement, method not given
T1 construct: residues 32-291, N-terminal flexible region removed
T1 sequence (Q8MNT9 32-291): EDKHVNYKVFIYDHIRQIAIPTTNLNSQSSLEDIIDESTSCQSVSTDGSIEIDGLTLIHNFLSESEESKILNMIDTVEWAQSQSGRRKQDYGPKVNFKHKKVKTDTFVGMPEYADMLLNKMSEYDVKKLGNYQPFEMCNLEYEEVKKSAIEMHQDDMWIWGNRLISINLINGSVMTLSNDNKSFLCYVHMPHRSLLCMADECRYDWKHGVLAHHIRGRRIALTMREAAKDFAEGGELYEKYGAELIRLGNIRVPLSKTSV
From the text: binding affinity measurement, method not told in main text on NMAD-1_32–291 (NMAD-1 truncation Δ1–31) | NOG as the full-length NMAD-1 (Supplementary Figure S3C)

[2] = biological target: T2, CTD-deleted NMAD-1 (ΔCTD, residues 1–259) (Caenorhabditis elegans, UniProt Q8MNT9); assay: binding affinity measurement, method not given
T2 construct: residues 1-259, C-terminal domain deleted
T2 sequence (Q8MNT9 1-259): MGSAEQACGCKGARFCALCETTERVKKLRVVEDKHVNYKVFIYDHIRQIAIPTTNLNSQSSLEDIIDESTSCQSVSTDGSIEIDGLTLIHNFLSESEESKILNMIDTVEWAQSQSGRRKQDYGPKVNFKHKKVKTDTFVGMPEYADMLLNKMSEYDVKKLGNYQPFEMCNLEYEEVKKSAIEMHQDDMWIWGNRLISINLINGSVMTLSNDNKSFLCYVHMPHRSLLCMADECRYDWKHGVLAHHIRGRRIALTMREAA
From the text: binding affinity measurement, method not told in main text on CTD-deleted NMAD-1 (ΔCTD, residues 1–259) | the CTD-deleted NMAD-1 retained the NOG binding affinity

NMAD-1 (WT, full-length) = biological target: T3, NMAD-1 (WT, full-length) (Caenorhabditis elegans, UniProt Q8MNT9); assay: isothermal titration calorimetry; assay type: binding
T3 construct: recombinant full-length protein
T3 sequence (Q8MNT9 1-291): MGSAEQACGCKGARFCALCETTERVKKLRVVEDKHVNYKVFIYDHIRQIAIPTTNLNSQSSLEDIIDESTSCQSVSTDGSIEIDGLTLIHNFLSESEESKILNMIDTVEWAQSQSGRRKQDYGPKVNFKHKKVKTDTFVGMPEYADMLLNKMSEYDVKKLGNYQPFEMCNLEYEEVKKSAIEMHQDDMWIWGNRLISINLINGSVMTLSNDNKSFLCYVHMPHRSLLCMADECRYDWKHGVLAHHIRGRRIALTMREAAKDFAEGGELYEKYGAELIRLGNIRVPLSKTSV
From the text: isothermal titration calorimetry on NMAD-1 (WT, full-length) | the cofactor analog N-oxalylglycine (NOG) with dissociation constants (KD) of […]

O=C(O)CNC(=O)C(=O)O [N-oxalylglycine]
Kd [1]: 1250 ± 100 nM | Kd [2]: 1680 ± 10 nM | Kd (NMAD-1 (WT, full-length)): 1070 ± 110 nM
